Assay results taken from BindingDB's records for doi:10.1021/jm00095a009 (Dupont Pharmaceuticals, 1992).

target: Phospholipase A2 (Crotalus adamanteus); experiment: Inhibitory activity against phospholipase A2 of Croatalus adamanteus

IC50 [µM]	Structure (SMILES)
> 1000	OC(Cn1ccnc1)(c1ccc(F)cc1)c1ccc(-c2ccncc2)cc1 (stereo not drawn)
> 1000	Cc1ccc(C(O)(Cn2ccnc2)c2ccc(-c3ccncc3)cc2)cc1 (stereo not drawn)
> 1000	Oc1c(Cc2ccccc2)ccc2ccccc12
